In patent US11208412B2 (DAEGU-GYEONGBUK MEDICAL INNOVATION FOUNDATION, priority 2017, dated 2021) one finds IC50 data, which are given here for 22 compounds.

In the assay the target is T1, recombinant LRRK2 kinase (Homo sapiens, UniProt Q5S007).
T1 construct: purchased Signal Chem, Richmond, BC, Canada
Briefly: LRRK2 kinase inhibition (Kinase-Glo luminescence). Type of assay: biochemical. The conditions noted are these: IC50 grade; 25 μmol/L ATP, LRRKtide, 30° C. 2 hours; read-out: Enzyme activity LRRK2. How it is done: Upon completion of the reaction, an equal amount of Kinase-Glo (Promega, Madison, Wis.) solution was added thereto, followed by reaction for 40 minutes. A detection solution was added thereto, followed by further reaction at room temperature for 30 minutes. Then, IC50 of kinase was calculated by measuring the amount of luciferase using a microplate ELISA reader (Bio-Tek).
Background: In Kinase-Glo more light means more ATP remaining.

T1 sequence (Q5S007 whole entry): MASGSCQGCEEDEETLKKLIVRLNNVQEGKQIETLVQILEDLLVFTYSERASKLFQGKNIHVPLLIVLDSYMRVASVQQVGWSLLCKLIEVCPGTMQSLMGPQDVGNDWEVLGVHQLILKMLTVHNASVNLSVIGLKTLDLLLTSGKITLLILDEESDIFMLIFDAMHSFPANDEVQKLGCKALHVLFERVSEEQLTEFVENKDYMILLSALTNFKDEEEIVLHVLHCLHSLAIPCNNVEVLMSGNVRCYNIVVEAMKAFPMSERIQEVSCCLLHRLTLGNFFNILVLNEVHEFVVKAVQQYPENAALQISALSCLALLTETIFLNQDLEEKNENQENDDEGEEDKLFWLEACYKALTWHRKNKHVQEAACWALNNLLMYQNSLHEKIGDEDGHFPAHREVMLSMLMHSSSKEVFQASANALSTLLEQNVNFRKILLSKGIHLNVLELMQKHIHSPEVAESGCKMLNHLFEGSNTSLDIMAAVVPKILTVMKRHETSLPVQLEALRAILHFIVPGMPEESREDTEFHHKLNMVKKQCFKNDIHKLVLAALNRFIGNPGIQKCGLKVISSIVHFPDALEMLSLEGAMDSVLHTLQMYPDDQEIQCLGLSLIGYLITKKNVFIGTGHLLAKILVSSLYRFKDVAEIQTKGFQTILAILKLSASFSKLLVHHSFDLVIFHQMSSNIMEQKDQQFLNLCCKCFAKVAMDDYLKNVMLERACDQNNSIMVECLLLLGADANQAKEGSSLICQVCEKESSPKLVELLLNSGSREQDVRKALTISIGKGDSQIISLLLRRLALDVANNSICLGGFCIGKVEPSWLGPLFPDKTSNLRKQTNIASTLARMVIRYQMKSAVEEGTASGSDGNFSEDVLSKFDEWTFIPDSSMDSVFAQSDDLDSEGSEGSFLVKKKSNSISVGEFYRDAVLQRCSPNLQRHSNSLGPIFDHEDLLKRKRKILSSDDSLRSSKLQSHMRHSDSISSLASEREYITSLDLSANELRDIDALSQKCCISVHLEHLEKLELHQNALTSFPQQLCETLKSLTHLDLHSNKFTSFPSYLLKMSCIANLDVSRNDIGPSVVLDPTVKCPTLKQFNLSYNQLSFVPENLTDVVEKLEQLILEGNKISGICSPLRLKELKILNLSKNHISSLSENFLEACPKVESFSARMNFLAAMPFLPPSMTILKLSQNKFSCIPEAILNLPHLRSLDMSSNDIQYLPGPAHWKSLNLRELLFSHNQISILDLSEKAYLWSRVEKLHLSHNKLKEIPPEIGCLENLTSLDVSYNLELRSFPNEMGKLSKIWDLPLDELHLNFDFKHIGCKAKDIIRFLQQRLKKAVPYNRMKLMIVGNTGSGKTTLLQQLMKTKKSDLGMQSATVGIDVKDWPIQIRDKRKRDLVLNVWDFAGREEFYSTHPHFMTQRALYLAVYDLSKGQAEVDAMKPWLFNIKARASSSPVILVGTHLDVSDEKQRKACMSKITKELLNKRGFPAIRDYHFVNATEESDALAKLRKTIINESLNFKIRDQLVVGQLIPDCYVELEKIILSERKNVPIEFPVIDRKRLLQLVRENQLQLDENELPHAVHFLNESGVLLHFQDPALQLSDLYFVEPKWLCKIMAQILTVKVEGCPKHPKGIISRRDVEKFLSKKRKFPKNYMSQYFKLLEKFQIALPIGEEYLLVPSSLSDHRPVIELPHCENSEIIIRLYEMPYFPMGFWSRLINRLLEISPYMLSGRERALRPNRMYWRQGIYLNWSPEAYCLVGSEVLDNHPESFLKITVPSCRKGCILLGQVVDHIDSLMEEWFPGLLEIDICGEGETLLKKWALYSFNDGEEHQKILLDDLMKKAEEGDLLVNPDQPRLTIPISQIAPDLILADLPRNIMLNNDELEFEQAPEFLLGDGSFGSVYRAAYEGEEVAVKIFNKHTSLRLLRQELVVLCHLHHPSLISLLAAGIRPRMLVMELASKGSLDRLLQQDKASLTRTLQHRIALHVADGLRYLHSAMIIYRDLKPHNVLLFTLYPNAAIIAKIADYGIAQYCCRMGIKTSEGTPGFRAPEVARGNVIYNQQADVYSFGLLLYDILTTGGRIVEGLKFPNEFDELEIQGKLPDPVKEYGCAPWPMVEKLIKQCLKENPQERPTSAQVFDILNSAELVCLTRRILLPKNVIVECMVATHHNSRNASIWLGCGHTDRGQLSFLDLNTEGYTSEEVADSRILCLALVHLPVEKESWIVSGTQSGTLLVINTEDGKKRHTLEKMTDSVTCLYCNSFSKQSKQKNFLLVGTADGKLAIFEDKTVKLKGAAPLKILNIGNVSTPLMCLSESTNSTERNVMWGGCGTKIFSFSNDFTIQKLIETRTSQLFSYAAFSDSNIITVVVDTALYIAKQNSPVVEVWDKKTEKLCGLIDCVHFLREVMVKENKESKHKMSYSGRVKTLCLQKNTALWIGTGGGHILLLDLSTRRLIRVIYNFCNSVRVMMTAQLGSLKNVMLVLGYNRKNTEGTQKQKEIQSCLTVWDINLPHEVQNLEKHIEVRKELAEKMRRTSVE

Consider `CNc1nc(Nc2cn(C(C)(C)C#N)nc2Cl)nc2[nH]cc(C#N)c12` [Example 71, 2-((3-chloro-1-(2-cyanopropane-2-yl)-1H-pyrazole-4-yl)amino)-4-(methylamino)-7H-pyrrolo[2,3-d]pyrimidine-5-carbonitrile], for which the IC50 is under 10 nM. As for `CCNc1nc(Nc2cn(C(C)(C)C#N)nc2Cl)nc2[nH]cc(C#N)c12` [Example 72, 2-((3-chloro-1-(2-cyanopropane-2-yl)-1H-pyrazole-4-yl)amino)-4-(ethylamino)-7H-pyrrolo[2,3-d]pyrimidine-5-carbonitrile], the IC50 was under 10 nM. For `CNc1nc(Nc2cnn(C(C)(C)C#N)c2Cl)nc2[nH]cc(C#N)c12` [Example 73, 2-((5-chloro-1-(2-cyanopropane-2-yl)-1H-pyrazole-4-yl)amino)-4-(methylamino)-7H-pyrrolo[2,3-d]pyrimidine-5-carbonitrile] the value was under 10 nM; for `CCNc1nc(Nc2cnn(C(C)(C)C#N)c2Cl)nc2[nH]cc(C#N)c12` [Example 74, 2-((5-chloro-1-(2-cyanopropane-2-yl)-1H-pyrazole-4-yl)amino)-4-(ethylamino)-7H-pyrrolo[2,3-d]pyrimidine-5-carbonitrile], under 10 nM. With `CNc1nc(Nc2ccc(C(=O)N3CCN(C)C[C@H]3C)cc2OC)nc2[nH]cc(C#N)c12` [Example 75, (R)-2-((4-(2,4-dimethylpiperazine-1-carbonyl)-2-methoxyphenyl)amino)-4-(methylamino)-7H-pyrrolo[2,3-d]pyrimidine-5-carbonitrile], the IC50 is under 10 nM. For `CCNc1nc(Nc2ccc(C(=O)N3CCN(C)C[C@H]3C)cc2OC)nc2[nH]cc(C#N)c12` [Example 76, (R)-2-((4-(2,4-dimethylpiperazine-1-carbonyl)-2-methoxyphenyl)amino)-4-(ethylamino)-7H-pyrrolo[2,3-d]pyrimidine-5-carbonitrile], the IC50 was under 10 nM.

On to `CNc1nc(Nc2c(C)nn(C(C)(C)C#N)c2C)nc2[nH]cc(C#N)c12` [Example 77, 2-((1-(2-cyanopropane-2-yl)-3,5-dimethyl-1H-pyrazole-4-yl)amino)-4-(methylamino)-7H-pyrrolo[2,3-d]pyrimidine-5-carbonitrile], for which the IC50 is over 100 nM. On to `CCNc1nc(Nc2c(C)nn(C(C)(C)C#N)c2C)nc2[nH]cc(C#N)c12` [Example 78, 2-((1-(2-cyanopropane-2-yl)-3,5-dimethyl-1H-pyrazole-4-yl)amino)-4-(ethylamino)-7H-pyrrolo[2,3-d]pyrimidine-5-carbonitrile], for which the IC50 is over 100 nM. Consider `CCNc1nc(Nc2cc(F)c(C(=O)N3CCN(C)C[C@H]3C)cc2OC)nc2[nH]cc(C#N)c12` [Example 79, (R)-2-((4-(2,4-dimethylpiperazine-1-carbonyl)-5-fluoro-2-methoxyphenyl)amino)-4-(ethylamino)-7H-pyrrolo[2,3-d]pyrimidine-5-carbonitrile], for which the IC50 is under 10 nM. For `CNc1nc(Nc2cc(F)c(C(=O)N3CCN(C)C[C@H]3C)cc2OC)nc2[nH]cc(C#N)c12` [Example 80, (R)-2-((4-(2,4-dimethylpiperazine-1-carbonyl)-5-fluoro-2-methoxyphenyl)amino)-4-(methylamino)-7H-pyrrolo[2,3-d]pyrimidine-5-carbonitrile] the value was 10 to 100 nM; for `COc1cc(C(=O)NC2CCN(C3COC3)CC2)c(F)cc1Nc1nc(NC2(C)CC2)c2c(C#N)c[nH]c2n1` [Example 81, 4-((5-cyano-4-((1-methylcyclopropyl)amino)-7H-pyrrolo[2,3-]pyrimidine-2-yl)amino)-2-fluoro-5-methoxy-N-(1-(oxetane-3-yl)piperidine-4-yl)benzamide], 10 to 100 nM. Consider `COc1cc(C(=O)NC2CCN(C(C)C)CC2)c(F)cc1Nc1nc(NC2(C)CC2)c2c(C#N)c[nH]c2n1` [Example 82, 4-((5-cyano-4-((1-methylcyclopropyl)amino)-7H-pyrrolo[2,3-d]pyrimidine-2-yl)amino)-2-fluoro-N-(1-isopropylpiperidine-4-yl)-5-methoxybenzamide], for which the IC50 was in the range of 10 to 100 nM.

As to `COc1cc(C(=O)NC2CCN(C)CC2)c(F)cc1Nc1nc(NC2(C)CC2)c2c(C#N)c[nH]c2n1` [Example 83, 4-((5-cyano-4-((1-methylcyclopropyl)amino)-7H-pyrrolo[2,3-d]pyrimidine-2-yl)amino)-2-fluoro-5-methoxy-N-(1-methylpiperidine-4-yl)benzamide], the IC50 was under 10 nM. On to `COc1cc(C(=O)N2CCOCC2)ccc1Nc1nc(OC2CCOCC2)c2c(C#N)c[nH]c2n1` [Example 84, 2-((2-methoxy-4-(morpholine-4-carbonyl)phenyl)amino)-4-((tetrahydro-2H-pyran-4-yl)oxy)-7H-pyrrolo[2,3-d]pyrimidine-5-carbonitrile], for which the IC50 was under 10 nM. Turning to `COc1cc(C(=O)N2CCC(N3CCOCC3)CC2)ccc1Nc1nc(OC2CCOCC2)c2c(C#N)c[nH]c2n1` [Example 85], the IC50 is under 10 nM. The result for `COc1cc(C(=O)N2CCOCC2)ccc1Nc1nc(OC2CCOC2)c2c(C#N)c[nH]c2n1` (stereo not shown) [Example 86, 2-((2-methoxy-4-(morpholine-4-carbonyl)phenyl)amino)-4-((tetrahydrofuran-3-yl)oxy)-7H-pyrrolo[2,3-d]pyrimidine-5-carbonitrile] reads under 10 nM; that for `COc1cc(C(=O)N2CCC(N3CCOCC3)CC2)ccc1Nc1nc(OC2CCOC2)c2c(C#N)c[nH]c2n1` (stereo not shown) [Example 87, 2-((2-methoxy-4-(4-morpholinopiperidine-1-carbonyl)phenyl)amino)-4-((tetrahydrofuran-3-yl)oxy)-7H-pyrrolo[2,3-d]pyrimidine-5-carbonitrile], under 10 nM. Take `COc1cc(C(=O)N2CCOCC2)ccc1Nc1nc(O[C@H]2CCOC2)c2c(C#N)c[nH]c2n1` [Example 88, (S)-2-((2-methoxy-4-(morpholine-4-carbonyl)phenyl)amino)-4-((tetrahydrofuran-3-yl)oxy)-7H-pyrrolo[2,3-d]pyrimidine-5-carbonitrile]: the IC50 was under 10 nM. As for `COc1cc(C(=O)N2CCOCC2)ccc1Nc1nc(O[C@@H]2CCOC2)c2c(C#N)c[nH]c2n1` [Example 89, (R)-2-((2-methoxy-4-(morpholine-4-carbonyl)phenyl)amino)-4-((tetrahydrofuran-3-yl)oxy)-7H-pyrrolo[2,3-d]pyrimidine-5-carbonitrile], the IC50 is under 10 nM. In the case of `COc1cc(C(=O)N2CCOCC2)ccc1Nc1nc(OC(C)C)c2c(C#N)c[nH]c2n1` [Example 90, 4-isoprofoxy-2-((2-methoxy-4-(morpholine-4-carbonyl)phenyl)amino)-7H-pyrrolo[2,3-d]pyrimidine-5-carbonitrile], the IC50 was under 10 nM. With `COc1cc(C(=O)N2CCC(N3CCOCC3)CC2)ccc1Nc1nc(OC(C)C)c2c(C#N)c[nH]c2n1` [Example 91, 4-isoprofoxy-2-((2-methoxy-4-(4-morpholinopiperidine-1-carbonyl)phenyl)amino)-7H-pyrrolo[2,3-d] pyrimidine-5-carbonitrile], the IC50 is under 10 nM. As to `COc1cc(C(=O)N2CCOCC2)c(F)cc1Nc1nc(O[C@H]2CCOC2)c2c(C#N)c[nH]c2n1` [Example 92, (S)-2-((5-fluoro-2-methoxy-4-(morpholine-4-carbonyl)phenyl)amino)-4-((tetrahydrofuran-3-yl)oxy)-7H-pyrrolo[2,3 d]pyrimidine-5-carbonitrile], the IC50 was under 10 nM.
